The test system of assay [1] is HCT116 cells. The experiment in a line: In vitro assay of inhibition of proliferation in whole cells (MTS). Type of assay: cell-based. The note with it: Homo sapiens, HCT-116, 72 hours, read-out: IC50 (nM) Test (b) (In vitro assay for the inhibition of whole cell proliferation). The procedure:
Inhibition of proliferation in whole cells was assayed using the Promega cell titer 96 aqueous proliferation assay (Promega #G5421). HCT116 cells were seeded in 96 well plates at 1×10^3 cells/well, and allowed to adhere overnight. They were treated with inhibitors for 72 hours. 20 μl of the tetrazolium dye MTS was added to each well and the plates were re-incubated for 3 hours. Absorbance was then measured on a 96 well plate reader at […]. The IC50 values for HDAC inhibitors were determined by performing dose response curves with individual compounds and determining the concentration of inhibitor producing fifty percent decrease in the maximal signal (diluent control).

Assay [2] addresses T1, recombinant human HDAC1 (Homo sapiens, UniProt Q13547).
T1 construct: FLAG (C); made in house; host or cells: Hi5 insect cells
The experiment in a line: In vitro enzyme assay of recombinant HDAC1. Type of assay: biochemical. Conditions: recombinant human HDAC1, acetylated histone H4 peptide; read-out: IC50 (nM) Test (a) (In vitro assay for the inhibition of HDAC1). The procedure: HDAC inhibitors were screened against recombinant human HDAC1 produced in Hi5 insect cells. The enzyme was cloned with a FLAG tag at the C-terminal of the gene and affinity purified using Anti-FLAG M2 agarose from SIGMA (A2220).
The deacetylase assays were carried out in a 50 μl reaction. HDAC1 (75 ng of enzyme) diluted in 15 μl of reaction buffer (25 mM TrisHCl (pH 8), 137 mM NaCl, 2.7 mM KCl, 1 mM MgCl2) was mixed with either buffer alone (10 μl) or buffer containing compound (10 μl) for 30 minutes at ambient temperature. 25 μM acetylated histone H4 peptide (KI 174 Biomol) diluted in 25 μl of buffer was then added to the reaction and incubated for one hour at ambient temperature. The reaction was stopped by addition of an equal volume (50 μl) of Fluor de Lys developer (Biomol) containing Trichostatin A at 2 μM. The reaction was allowed to develop for 30 minutes at ambient temperature and then fluorescence measured at an excitation wavelength of 360 nm and an emission wavelength of 465 nm. IC50 values for HDAC enzyme inhibitors were determined by performing dose response curves with individual compounds and determining the concentration of inhibitor producing fifty percent decrease in the maximal signal (diluent control).

T1 sequence (Q13547 whole entry): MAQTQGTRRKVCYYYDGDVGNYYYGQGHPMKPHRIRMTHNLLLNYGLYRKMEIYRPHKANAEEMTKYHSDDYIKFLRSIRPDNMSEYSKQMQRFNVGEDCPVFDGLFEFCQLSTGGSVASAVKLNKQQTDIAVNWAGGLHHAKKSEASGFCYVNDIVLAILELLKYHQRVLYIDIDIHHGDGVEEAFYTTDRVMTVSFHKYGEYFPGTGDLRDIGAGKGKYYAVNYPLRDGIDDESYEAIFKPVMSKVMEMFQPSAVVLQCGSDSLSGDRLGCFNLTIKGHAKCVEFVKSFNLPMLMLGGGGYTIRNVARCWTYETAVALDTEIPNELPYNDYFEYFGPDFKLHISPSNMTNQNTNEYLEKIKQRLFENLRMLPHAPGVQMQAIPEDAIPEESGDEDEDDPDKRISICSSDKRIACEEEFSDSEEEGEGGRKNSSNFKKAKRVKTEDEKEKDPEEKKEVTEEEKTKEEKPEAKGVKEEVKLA

Consider `CC(C)NCc1cnc(-c2ccc(C(=O)Nc3ccccc3N)cc2)s1` [Example 1, N-(2-aminophenyl)-4-{5-[(isopropylamino)methyl]-1,3-thiazol-2-yl}benzamide], for which the IC50 was 183 nM in assay [1] and 29 nM in assay [2].

The record behind these values is patent publication US20090312556A1, “N-(2-AMINIPHENYL)-4-(5-((ETHYLAMINO)METHYL)-1,2-THIAZOL-2-YL) BENZAMIDE AND N-(2-AMINOPHENYL)-4-(5-((ISOPROPYLAMINO)METHYL)-1,2-THIAZOL-2-YL) BENZAMIDE AS HDAC INHIBITORS” (ASTRAZENECA R& D ALDERLY, priority 2004, published 2009).
